Experimental data taken from ChEMBL document CHEMBL1144827, “PTP1B inhibitors: synthesis and evaluation of difluoro-methylenephosphonate bioisosteres on a sulfonamide scaffold” (Bioorg Med Chem Lett, 2008).

Molecular target: T1, Tyrosine-protein phosphatase non-receptor type 1 (Homo sapiens, UniProt P18031)
T1 sequence (P18031 whole entry): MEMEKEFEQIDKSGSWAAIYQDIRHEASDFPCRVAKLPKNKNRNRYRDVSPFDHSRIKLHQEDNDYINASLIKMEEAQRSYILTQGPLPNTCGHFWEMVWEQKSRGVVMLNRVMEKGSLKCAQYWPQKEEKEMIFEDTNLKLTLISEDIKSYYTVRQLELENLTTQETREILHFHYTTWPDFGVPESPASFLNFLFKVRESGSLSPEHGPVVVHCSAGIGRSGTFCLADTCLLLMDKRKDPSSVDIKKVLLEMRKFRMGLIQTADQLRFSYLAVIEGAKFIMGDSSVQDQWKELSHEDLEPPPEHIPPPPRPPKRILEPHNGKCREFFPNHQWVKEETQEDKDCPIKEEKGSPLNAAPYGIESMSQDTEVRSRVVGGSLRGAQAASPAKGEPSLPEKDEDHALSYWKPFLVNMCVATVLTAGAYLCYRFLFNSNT
Assay: Inhibition of PTP1B

SMILES | IC50
O=C(O)COc1ccc(CN(Cc2ccc(-c3csnn3)cc2)S(=O)(=O)c2ccccc2)cc1Cl | 53.8 µM
O=C(O)COc1ccc(CN(Cc2ccc(-c3csnn3)cc2)S(=O)(=O)c2ccc(OCC(=O)O)cc2)cc1 | 59.6 µM
O=C(O)COc1ccc(S(=O)(=O)N(Cc2ccc(-c3csnn3)cc2)Cc2ccc(OCC(=O)O)c(Cl)c2)cc1 | 57.7 µM
O=C(O)COc1ccc(S(=O)(=O)N(Cc2ccc(-c3csnn3)cc2)Cc2ccc(C(F)(F)C(=O)O)cc2)cc1 | 17.7 µM
Cc1cc(CN(Cc2ccc(-c3csnn3)cc2)S(=O)(=O)c2ccccc2)ccc1OCC(=O)O | 80.7 µM
O=C(O)COc1ccc(S(=O)(=O)N(Cc2ccc(-c3csnn3)cc2)Cc2ccc(OCC(=O)O)c(C(=O)O)c2)cc1 | 4.4 µM
O=C(O)C(=O)Nc1ccc(CN(Cc2ccc(-c3csnn3)cc2)S(=O)(=O)c2ccccc2)cc1C(=O)O | 10.1 µM
Cc1cc(CN(Cc2ccc(-c3csnn3)cc2)S(=O)(=O)c2ccccc2)cc(C)c1OC(Cc1ccccc1)C(=O)O (centres undefined) | 38 µM
Cc1cc(CN(Cc2ccc(-c3csnn3)cc2)S(=O)(=O)c2ccc(OCC(=O)O)cc2)ccc1OCC(=O)O | 76.2 µM
COc1cc(CN(Cc2ccc(-c3csnn3)cc2)S(=O)(=O)c2ccc(OCC(=O)O)cc2)ccc1OC(F)(F)C(=O)O | > 250 µM
CC(C(=O)O)c1ccc(CN(Cc2ccc(-c3csnn3)cc2)S(=O)(=O)c2ccc(OCC(=O)O)cc2)cc1 (centres undefined) | 153 µM
O=C(O)COc1ccc(S(=O)(=O)N(Cc2ccc(OC(F)(F)C(=O)O)cc2)Cc2ccc(-c3csnn3)cc2)cc1 | 29.1 µM
O=C(O)COc1ccc(S(=O)(=O)N(Cc2ccc(-c3csnn3)cc2)Cc2cccc(OC(F)(F)C(=O)O)c2)cc1 | 230 µM
O=C(O)CSc1ccc(CN(Cc2ccc(-c3csnn3)cc2)S(=O)(=O)c2ccccc2)cc1 | 115 µM
O=C(O)C(F)(F)Oc1ccc(CN(Cc2ccc(-c3csnn3)cc2)S(=O)(=O)c2ccccc2)cc1 | 97.1 µM
O=C(O)CS(=O)(=O)c1ccc(CN(Cc2ccc(-c3csnn3)cc2)S(=O)(=O)c2ccccc2)cc1 | 232 µM
Cc1cc(CN(Cc2ccc(-c3csnn3)cc2)S(=O)(=O)c2ccc(OCC(=O)O)cc2)cc(C)c1OC(Cc1ccccc1)C(=O)O (centres undefined) | > 250 µM
O=C(O)c1cc2cc(CN(Cc3ccc(-c4csnn4)cc3)S(=O)(=O)c3ccccc3)ccc2o1 | 63.6 µM
O=C(O)C[S+]([O-])c1ccc(CN(Cc2ccc(-c3csnn3)cc2)S(=O)(=O)c2ccccc2)cc1 (centres undefined) | 173 µM
O=C(O)COc1ccc(S(=O)(=O)N(Cc2ccc(-c3csnn3)cc2)Cc2ccc([S+]([O-])CC(=O)O)cc2)cc1 (centres undefined) | > 250 µM
O=P(O)(O)C(F)(F)c1ccc(CN(Cc2ccc(-c3csnn3)cc2)S(=O)(=O)c2ccccc2)cc1 | 0.2 µM
O=C(O)COc1ccc(CN(Cc2ccc(-c3csnn3)cc2)S(=O)(=O)c2ccccc2)cc1C(=O)O | 12.2 µM
O=C(O)C(F)(F)Oc1ccc(CN(Cc2ccc(-c3csnn3)cc2)S(=O)(=O)c2ccccc2)cc1Br | 52.1 µM
O=C(O)C(=O)Nc1ccc(CN(Cc2ccc(-c3csnn3)cc2)S(=O)(=O)c2ccccc2)cc1Br | 13.8 µM
O=C(O)COc1ccc(S(=O)(=O)N(Cc2ccc(-c3csnn3)cc2)Cc2ccc(S(=O)(=O)CC(=O)O)cc2)cc1 | > 250 µM
O=P(O)(O)Cc1ccc(CN(Cc2ccc(-c3csnn3)cc2)S(=O)(=O)c2ccccc2)cc1 | 123 µM
O=C(O)COc1ccc(S(=O)(=O)N(Cc2ccc(CP(=O)(O)O)cc2)Cc2ccc(-c3csnn3)cc2)cc1 | 96.8 µM
O=C(O)COc1ccc(S(=O)(=O)N(Cc2ccc(-c3csnn3)cc2)Cc2ccc3oc(C(=O)O)cc3c2)cc1 | 29.1 µM
O=C(O)C(=O)N(c1ccccc1)c1ccc(CN(Cc2ccc(-c3csnn3)cc2)S(=O)(=O)c2ccccc2)cc1 | 235 µM

The remaining lines, values ahead:

IC50 | SMILES
77.9 µM | O=C(O)COc1ccc(S(=O)(=O)N(Cc2ccc(-c3csnn3)cc2)Cc2ccc(OC(F)(F)C(=O)O)c(Br)c2)cc1
51.8 µM | O=C(O)C(F)(F)c1ccc(CN(Cc2ccc(-c3csnn3)cc2)S(=O)(=O)c2ccccc2)cc1
137 µM | O=C(O)COc1c(F)cc(CN(Cc2ccc(-c3csnn3)cc2)S(=O)(=O)c2ccccc2)cc1F
74.2 µM | CC(C(=O)O)(C(=O)O)c1ccc(CN(Cc2ccc(-c3csnn3)cc2)S(=O)(=O)c2ccc(OCC(=O)O)cc2)cc1
198 µM | O=C(O)C(F)(F)Oc1cccc(CN(Cc2ccc(-c3csnn3)cc2)S(=O)(=O)c2ccccc2)c1
19.9 µM | O=C(O)COc1ccc(S(=O)(=O)N(Cc2ccc(-c3csnn3)cc2)Cc2cc(F)c(OCC(=O)O)c(F)c2)cc1
> 250 µM | O=C(O)COc1ccc(S(=O)(=O)N(Cc2ccc(-c3csnn3)cc2)Cc2ccc(N(C(=O)C(=O)O)c3ccccc3)cc2)cc1
237 µM | COc1cc(CN(Cc2ccc(-c3csnn3)cc2)S(=O)(=O)c2ccccc2)ccc1OC(F)(F)C(=O)O
60.3 µM | O=C(O)C(=O)c1ccc(CN(Cc2ccc(-c3csnn3)cc2)S(=O)(=O)c2ccccc2)cc1
4.1 µM | O=C(O)COc1ccc(S(=O)(=O)N(Cc2ccc(-c3csnn3)cc2)Cc2ccc(OCC(=O)O)c(Br)c2)cc1
114 µM | O=C(O)COc1ccc(S(=O)(=O)N(Cc2ccc(SCC(=O)O)cc2)Cc2ccc(-c3csnn3)cc2)cc1
7.9 µM | O=C(O)COc1ccc(CN(Cc2ccc(-c3csnn3)cc2)S(=O)(=O)c2ccccc2)cc1Br
27.6 µM | O=C(O)COc1ccc(S(=O)(=O)N(Cc2ccc(C(=O)C(=O)O)cc2)Cc2ccc(-c3csnn3)cc2)cc1
54.1 µM | O=C(O)COc1ccc(CN(Cc2ccc(-c3csnn3)cc2)S(=O)(=O)c2ccccc2)cc1
1.4 µM | O=C(O)COc1ccc(S(=O)(=O)N(Cc2ccc(-c3csnn3)cc2)Cc2ccc(NC(=O)C(=O)O)c(C(=O)O)c2)cc1
